The values that follow come from patent EP0227941A1, “1-Phenyl-4-(1H)-pyridazinimines, their preparation and use” (BASF Aktiengesellschaft, priority 1985, dated 1987).

Where a name gives a salt, the structure may show the parent alone. Read-outs that look alike come from different tables or passages of the source.

Common to all, as to type: biochemical, Ratten
One experiment deals with T1, Monoaminoxidase Typ B (Rattus norvegicus, UniProt P19643).
T1 construct: Die Bestimmung der Monoaminoxidase erfolgte in verdünntem Rattenhirnhomogenat; from tissue; host or cells: rat brain homogenate
T1 sequence (P19643 1-520): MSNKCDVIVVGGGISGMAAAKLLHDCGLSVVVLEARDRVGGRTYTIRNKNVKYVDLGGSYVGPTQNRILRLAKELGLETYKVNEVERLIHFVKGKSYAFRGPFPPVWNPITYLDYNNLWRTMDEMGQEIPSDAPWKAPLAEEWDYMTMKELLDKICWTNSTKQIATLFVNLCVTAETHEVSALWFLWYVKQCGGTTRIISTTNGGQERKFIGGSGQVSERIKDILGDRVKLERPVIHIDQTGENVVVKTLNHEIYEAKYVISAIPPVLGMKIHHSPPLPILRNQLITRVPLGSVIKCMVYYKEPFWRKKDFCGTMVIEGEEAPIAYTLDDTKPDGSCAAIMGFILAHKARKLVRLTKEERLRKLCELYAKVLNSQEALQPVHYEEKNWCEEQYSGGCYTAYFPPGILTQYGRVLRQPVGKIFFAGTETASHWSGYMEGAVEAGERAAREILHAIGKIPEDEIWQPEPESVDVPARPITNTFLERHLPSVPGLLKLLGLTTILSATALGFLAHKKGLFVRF
Description: Inhibition of monoamine oxidase type B in rat brain homogenate (14C-phenylethylamine). Particulars: for Hemmung der Monoaminoxidase Typ B r.W. (relative Wirksamkeit): Quotient IC50 Referenzverbindung / IC50 Beispielverbindung. As to the method:
(§1) Hemmung der Monoaminoxidase
(§2) Die Bestimmung der Monoaminoxidase erfolgte in verdünntem Rattenhirnhomogenat dem 1. unterschiedliche Konzentrationen der zu prüfenden Testsubstanzen und 2. für die Bestimmung der Monoaminoxidase Typ A ¹⁴C-Tryptamin in einer Konzentration von 0,4 µmol, zur Bestimmung der Monoaminoxidase Typ B ¹⁴C-Phenylethylamin in einer Konzentration von 0,25 µmol zugesetzt wurde. Dieser Ansatz wurde 20 Minuten bei 37°C inkubiert. Die Reaktion wird durch 0,1 n HCl gestoppt und die Reaktionsprodukte nach Extraktion in Toluol-Szintillator (PPO + POPOP in Toluol) bestimmt. Der Blindwert wird in analogen Ansätzen mit einer Inkubationszeit von t = 0 Minuten bestimmt.
(§3) Aus den bei den verschiedenen Inhibitorkonzentrationen gegen die Kontrolle ermittelten Hemmwerten wurde durch lineare Regression nach logit-log-Transformation die mittlere Hemmkonzentration (IC₅₀) berechnet.

Experiment [1] deals with T2, Synaptosomen-Aufnahme von Serotonin (Rattus norvegicus, UniProt P31652).
T2 construct: Durch differentielle Zentrifugation wurden Synaptosomen erhalten; from tissue; host or cells: rat brain cortex synaptosomes
Description: Inhibition of serotonin uptake in rat brain synaptosomes (cortex, 3H-serotonin). The following applies: for Hemmung der Synaptosomen-Aufnahme von Serotonin r.W. (relative Wirksamkeit): Quotient IC50 Referenzverbindung / IC50 Beispielverbindung. The source says:
(§4) Hemmung der Neurotransmitter-Aufnahme in Rattenhirn-Synaptosomen
(§5) Hippocampus und Cortex aus Rattenhirn wurden präpariert und in 0,32 M Sucrose-Lösung homogenisiert. Durch differentielle Zentrifugation wurden Synaptosomen erhalten, die in Pufferlösung suspendiert wurden. Die Synaptosomen sind in der Lage, aus dem umgebenden Medium zugefügte Neurotransmittersubstanzen (z.B. Noradrenalin oder Serotonin) aktiv aufzunehmen. Dieser Vorgang ist durch uptake-Hemmer konzentrationsabhängig antagonisierbar. Die Synaptosomen wurden mit den Testsubstanzen in verschiedenen Konzentrationen versetzt und anschließend mit ³H-Noradrenalin (Hippocampus) bzw. ³H-Serotonin (Cortex) bei 37°C inkubiert. Die Substratkonzentration betrug ca. 10 nM. Nach Stoppen der Aufnahme durch Verdünnen mit eisgekühlter Pufferlösung wurden die Synaptosomen abzentrifugiert und die ³H-Aktivität im Sediment gemessen. Der Blindwert wird durch Inkubation bei 0°C ermittelt.
(§6) Aus den verschiedenen Inhibitor-Konzentrationen gegen Kontrolle ermittelten Hemmwerten wurde durch lineare Regression nach logit-log-Transformation die mittlere Hemmkonzentration IC₅₀ berechnet.

For a further experiment, the target named is T3, Monoaminoxidase Typ A (Rattus norvegicus, UniProt P21396).
T3 construct: Die Bestimmung der Monoaminoxidase erfolgte in verdünntem Rattenhirnhomogenat; from tissue; host or cells: rat brain homogenate
T3 sequence (P21396 1-526): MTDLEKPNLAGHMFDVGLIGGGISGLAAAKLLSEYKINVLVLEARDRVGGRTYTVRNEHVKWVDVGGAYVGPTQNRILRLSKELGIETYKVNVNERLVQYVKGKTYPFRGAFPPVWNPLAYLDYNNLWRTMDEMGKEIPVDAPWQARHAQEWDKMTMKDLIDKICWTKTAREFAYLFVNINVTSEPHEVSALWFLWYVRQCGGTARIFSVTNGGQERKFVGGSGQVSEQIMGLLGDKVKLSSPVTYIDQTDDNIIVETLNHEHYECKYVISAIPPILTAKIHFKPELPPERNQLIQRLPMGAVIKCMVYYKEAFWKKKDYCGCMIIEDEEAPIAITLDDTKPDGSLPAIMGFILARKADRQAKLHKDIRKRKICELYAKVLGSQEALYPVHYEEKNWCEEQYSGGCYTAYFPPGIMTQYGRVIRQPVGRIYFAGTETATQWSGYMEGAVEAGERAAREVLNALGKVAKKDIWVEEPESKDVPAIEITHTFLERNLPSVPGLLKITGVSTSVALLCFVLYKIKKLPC
Description: Inhibition of monoamine oxidase type A in rat brain homogenate (14C-tryptamine). Particulars: for Hemmung der Monoaminoxidase Typ A r.W. (relative Wirksamkeit): Quotient IC50 Referenzverbindung / IC50 Beispielverbindung. Here is the method: as §1, §2, §3

Experiment [2] deals with T4, Synaptosomen-Aufnahme von Noradrenalin (Rattus norvegicus, UniProt Q63380).
T4 construct: Durch differentielle Zentrifugation wurden Synaptosomen erhalten; from tissue; host or cells: rat brain hippocampus synaptosomes
The experiment can be described thus: Inhibition of noradrenaline uptake in rat brain synaptosomes (hippocampus, 3H-noradrenaline). The following applies: for Hemmung der Synaptosomen-Aufnahme von Noradrenalin r.W. (relative Wirksamkeit): Quotient IC50 Referenzverbindung / IC50 Beispielverbindung.
Description: as §4, §5, §6

Setting [3] is: rat brain homogenate, 14C-Phenylethylamin, 20 min 37°C, read-out: Hemmung der Monoaminoxidase Typ B IC50.
Where [4] appears, read: rat cortex synaptosomes, 3H-Serotonin ca. 10 nM, 37°C, read-out: Hemmung der Synaptosomen-Aufnahme von Serotonin IC50.
The mark [5] stands for this setting: rat brain homogenate, 14C-Tryptamin, 20 min 37°C, read-out: Hemmung der Monoaminoxidase Typ A IC50.
Where [6] appears, read: rat hippocampus synaptosomes, 3H-Noradrenalin ca. 10 nM, 37°C, read-out: Hemmung der Synaptosomen-Aufnahme von Noradrenalin IC50.

T2 sequence (P31652 whole entry): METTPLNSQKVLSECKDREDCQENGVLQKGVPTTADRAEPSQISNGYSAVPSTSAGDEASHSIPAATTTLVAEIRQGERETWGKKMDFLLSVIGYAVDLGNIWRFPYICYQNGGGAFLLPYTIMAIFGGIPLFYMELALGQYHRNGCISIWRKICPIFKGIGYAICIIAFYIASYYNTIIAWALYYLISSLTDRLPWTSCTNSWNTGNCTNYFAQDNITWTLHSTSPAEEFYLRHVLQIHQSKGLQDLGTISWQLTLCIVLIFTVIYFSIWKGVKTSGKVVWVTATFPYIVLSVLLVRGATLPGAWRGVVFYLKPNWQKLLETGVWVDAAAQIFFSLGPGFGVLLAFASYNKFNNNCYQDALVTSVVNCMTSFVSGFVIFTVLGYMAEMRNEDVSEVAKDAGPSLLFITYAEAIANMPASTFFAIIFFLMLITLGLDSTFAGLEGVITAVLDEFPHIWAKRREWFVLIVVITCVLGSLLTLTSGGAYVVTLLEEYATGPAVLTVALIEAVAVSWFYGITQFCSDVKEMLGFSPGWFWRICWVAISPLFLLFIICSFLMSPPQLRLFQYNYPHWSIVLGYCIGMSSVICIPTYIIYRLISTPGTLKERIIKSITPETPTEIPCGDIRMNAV
T4 sequence (Q63380 1-617): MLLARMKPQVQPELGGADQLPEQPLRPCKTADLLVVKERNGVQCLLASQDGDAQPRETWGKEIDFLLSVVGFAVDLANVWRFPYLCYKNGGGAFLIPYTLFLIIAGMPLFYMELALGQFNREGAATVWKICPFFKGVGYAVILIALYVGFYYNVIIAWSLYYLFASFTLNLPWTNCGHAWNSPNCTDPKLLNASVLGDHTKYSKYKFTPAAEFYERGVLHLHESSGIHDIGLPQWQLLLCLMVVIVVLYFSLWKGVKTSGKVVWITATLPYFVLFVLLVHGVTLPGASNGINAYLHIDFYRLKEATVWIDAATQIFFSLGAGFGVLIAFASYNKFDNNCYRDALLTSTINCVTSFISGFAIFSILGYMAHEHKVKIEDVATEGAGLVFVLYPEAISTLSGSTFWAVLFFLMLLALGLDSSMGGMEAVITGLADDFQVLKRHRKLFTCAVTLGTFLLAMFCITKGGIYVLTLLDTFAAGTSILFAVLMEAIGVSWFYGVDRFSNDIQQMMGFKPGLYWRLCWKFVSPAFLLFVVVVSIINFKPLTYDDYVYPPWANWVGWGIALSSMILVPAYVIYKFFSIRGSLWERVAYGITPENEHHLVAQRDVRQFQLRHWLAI

As to `CCc1ccc(-n2ccc(=N)cn2)cc1.Cl` [Beispiel 7, 1-(4-Ethylphenyl)-4-(1H)-pyridazinimin-hydrochlorid], at Monoaminoxidase Typ B, the IC50 is 1500 nM and the “Hemmung der Monoaminoxidase Typ B r.W. (relative Wirksamkeit)” value was 32.7. Besides, in experiment [1], half-maximal inhibition (IC50) required 58 nM and the “Hemmung der Synaptosomen-Aufnahme von Serotonin r.W. (relative Wirksamkeit)” value turned out to be 12.6. On Monoaminoxidase Typ A, it took 640 nM to reach half-maximal inhibition (IC50) and the “Hemmung der Monoaminoxidase Typ A r.W. (relative Wirksamkeit)” value amounted to 6.6. Besides, in experiment [2], half-maximal inhibition (IC50) required 500 nM and the “Hemmung der Synaptosomen-Aufnahme von Noradrenalin r.W. (relative Wirksamkeit)” value is 0.1.
With `N=c1ccn(-c2ccc(Br)c(Cl)c2)nc1` [Beispiel 17, 1-(3-Chlor-4-bromphenyl)-4-(1H)-pyridazinimin-hydrochlorid], on Monoaminoxidase Typ B, the “Hemmung der Monoaminoxidase Typ B r.W. (relative Wirksamkeit)” value is listed as 19.0. The IC50 stood at 2600 nM at Monoaminoxidase Typ B (setting [3]), 3.9 nM in experiment [1] (setting [4]), 1530 nM at Monoaminoxidase Typ A (setting [5]) and 4.8 nM in experiment [2] (setting [6]). For the same molecule, the “Hemmung der Synaptosomen-Aufnahme von Serotonin r.W. (relative Wirksamkeit)” value in experiment [1] is 184. Moreover, the “Hemmung der Monoaminoxidase Typ A r.W. (relative Wirksamkeit)” value on Monoaminoxidase Typ A was determined as 2.7. For the same molecule, the “Hemmung der Synaptosomen-Aufnahme von Noradrenalin r.W. (relative Wirksamkeit)” value in experiment [2] came to 6.5.
With `N=c1ccn(-c2ccc(Cl)c(Cl)c2)nc1` [Beispiel 1, 1-(3,4-Dichlorphenyl)-4-(1H)-pyridazinimin-hydrochlorid], on Monoaminoxidase Typ B, the “Hemmung der Monoaminoxidase Typ B r.W. (relative Wirksamkeit)” value was determined as 18.8. The IC50 at Monoaminoxidase Typ B (setting [3]) amounted to 2600 nM; in experiment [1] (setting [4]), 6.5 nM; on Monoaminoxidase Typ A (setting [5]), 1900 nM; in experiment [2] (setting [6]), 5.8 nM. For the same molecule, the “Hemmung der Synaptosomen-Aufnahme von Serotonin r.W. (relative Wirksamkeit)” value in experiment [1] came to 112. In addition, the “Hemmung der Monoaminoxidase Typ A r.W. (relative Wirksamkeit)” value at Monoaminoxidase Typ A turned out to be 2.2. In addition, in experiment [2], the “Hemmung der Synaptosomen-Aufnahme von Noradrenalin r.W. (relative Wirksamkeit)” value is listed as 5.3.
As for `Cc1ccc(-n2ccc(=N)cn2)cc1F` [Beispiel 11, 1-(3-Fluor-4-methylphenyl)-4-(1H)-pyridazinimin-hydrochlorid], on Monoaminoxidase Typ B, the “Hemmung der Monoaminoxidase Typ B r.W. (relative Wirksamkeit)” value is given as 9.6. Moreover, the half-inhibitory concentration (IC50) on Monoaminoxidase Typ B (setting [3]) was determined as 5100 nM; in experiment [1] (setting [4]) it was 100 nM; at Monoaminoxidase Typ A (setting [5]), 2100 nM; in experiment [2] (setting [6]), 26 nM. For the same molecule, in experiment [1], the “Hemmung der Synaptosomen-Aufnahme von Serotonin r.W. (relative Wirksamkeit)” value is recorded as 7.3. Also, the “Hemmung der Monoaminoxidase Typ A r.W. (relative Wirksamkeit)” value on Monoaminoxidase Typ A is on record as 2.0. In addition, in experiment [2], the “Hemmung der Synaptosomen-Aufnahme von Noradrenalin r.W. (relative Wirksamkeit)” value came to 1.2.
Regarding `N=c1ccn(-c2ccc(C(F)(F)F)c(Cl)c2)nc1` [Beispiel 12, 1-(3-Chlor-4-trifluormethylphenyl)-4-(1H)-pyridazinimin-hydrochlorid], the “Hemmung der Monoaminoxidase Typ B r.W. (relative Wirksamkeit)” value on Monoaminoxidase Typ B came out at 71. Besides, the IC50 at Monoaminoxidase Typ B (setting [3]) was determined as 700 nM; in experiment [1] (setting [4]), 8.7 nM; at Monoaminoxidase Typ A (setting [5]), 1800 nM; in experiment [2] (setting [6]), 83 nM. For the same molecule, the “Hemmung der Synaptosomen-Aufnahme von Serotonin r.W. (relative Wirksamkeit)” value in experiment [1] was 83.9. Also, the “Hemmung der Monoaminoxidase Typ A r.W. (relative Wirksamkeit)” value at Monoaminoxidase Typ A worked out at 2.3. In experiment [2], the “Hemmung der Synaptosomen-Aufnahme von Noradrenalin r.W. (relative Wirksamkeit)” value stood at 0.4.
With `Cc1cc(-n2ccc(=N)cn2)ccc1Br` [Beispiel 46, 1-(3-Methyl-4-bromphenyl)-4-(1H)-pyridazinimin-sulfat], the “Hemmung der Monoaminoxidase Typ B r.W. (relative Wirksamkeit)” value on Monoaminoxidase Typ B worked out at 12.2. Moreover, the half-maximal inhibitory concentration (IC50) was found to be 4000 nM on Monoaminoxidase Typ B (setting [3]), 7.1 nM in experiment [1] (setting [4]), 1000 nM at Monoaminoxidase Typ A (setting [5]) and 10 nM in experiment [2] (setting [6]). Also, the “Hemmung der Synaptosomen-Aufnahme von Serotonin r.W. (relative Wirksamkeit)” value in experiment [1] amounted to 103. The “Hemmung der Monoaminoxidase Typ A r.W. (relative Wirksamkeit)” value at Monoaminoxidase Typ A was determined as 4.2. Further, the “Hemmung der Synaptosomen-Aufnahme von Noradrenalin r.W. (relative Wirksamkeit)” value in experiment [2] is reported as 3.1.
For `Br.Cc1ccc(-n2ccc(=N)cn2)cc1` [Beispiel 5, 1-(4-Methylphenyl)-4-(1H)-pyridazinimin-hydrobromid], at Monoaminoxidase Typ B, half-maximal inhibition (IC50) required 10000 nM and the “Hemmung der Monoaminoxidase Typ B r.W. (relative Wirksamkeit)” value is given as 4.9. In experiment [1], the IC50 was 240 nM and the “Hemmung der Synaptosomen-Aufnahme von Serotonin r.W. (relative Wirksamkeit)” value was determined as 1.4. Moreover, on Monoaminoxidase Typ A, half-maximal inhibition (IC50) required 1500 nM and the “Hemmung der Monoaminoxidase Typ A r.W. (relative Wirksamkeit)” value turned out to be 2.8. Also, in experiment [2], the IC50 is 46 nM and the “Hemmung der Synaptosomen-Aufnahme von Noradrenalin r.W. (relative Wirksamkeit)” value is reported as 0.7.
With `Cc1cc(-n2ccc(=N)cn2)ccc1Cl` [Beispiel 45, 1-(3-Methyl-4-chlorphenyl)-4-(1H)-pyridazinimin-sulfat], the “Hemmung der Monoaminoxidase Typ B r.W. (relative Wirksamkeit)” value on Monoaminoxidase Typ B is listed as 9.8. In addition, the IC50 at Monoaminoxidase Typ B (setting [3]) came out at 5000 nM; in experiment [1] (setting [4]), 18 nM; at Monoaminoxidase Typ A (setting [5]) it was 1000 nM; in experiment [2] (setting [6]), 17 nM. In addition, in experiment [1], the “Hemmung der Synaptosomen-Aufnahme von Serotonin r.W. (relative Wirksamkeit)” value is on record as 40.6. The “Hemmung der Monoaminoxidase Typ A r.W. (relative Wirksamkeit)” value on Monoaminoxidase Typ A is on record as 4.2. The “Hemmung der Synaptosomen-Aufnahme von Noradrenalin r.W. (relative Wirksamkeit)” value in experiment [2] worked out at 1.8.
